Results published in ChEMBL document CHEMBL1158808, “Eunicellin-based diterpenoids, australins A-D, isolated from the soft coral Cladiella australis” (2005).
Values after ≈ are worked out from the molar mass of the structure shown.

Assays:
Assay type in all cases: functional
MDA-MB-231 = test: Cytotoxicity against human MDA-MB-231 cells after 6 days by MTT assay; conditions: MDA-MB-231, 144 h, read-out: ED50 (the source's name)
MCF7 = test: Cytotoxicity against human MCF7 cells after 6 days by MTT assay; conditions: MCF7, 144 h, read-out: ED50 (the source's name)
HepG2 = test: Cytotoxicity against human HepG2 cells after 6 days by MTT assay in presence of DMEM12; conditions: HepG2, 144 h, read-out: ED50 (the source's name)

C=C1C[C@@]2(O)O[C@H]([C@@H]3[C@@H](C(C)C)CC[C@@](C)(OC(=O)CCC)[C@@H]32)[C@](C)(O)CC[C@@H]1OC(C)=O [AUSTARLIN B]
EC50 (MDA-MB-231): 6.4 µg/mL (≈ 13.7 µM)
EC50 (MCF7): 8.6 µg/mL (≈ 18.4 µM)
EC50 (HepG2): 2.4 µg/mL

C=C1CC[C@H]([C@@H](C)CO)[C@@H]2[C@H]1C(=O)C[C@@](C)(O)[C@H]1CC[C@@](C)(OC(=O)CCC)[C@@H]2O1 [AUSTARLIN D]
EC50 (MDA-MB-231): 24.4 µg/mL (≈ 57.7 µM)
